In US20220339143A1, “TAK-925 FOR USE IN TREATING NARCOLEPSY” (Takeda Pharmaceutical Company Limited, priority 2019, published 2022):

Assay: Single dose PK in healthy subjects (Cohorts 1, 2, S1 and S2), plasma
Format: in vivo, human
Procedure: This study investigates (i) the safety and tolerability of Compound A (methyl (2R,3S)-3-((methylsulfonyl)amino)-2-(((cis-4-phenylcyclohexyl)oxy)methyl)piperidine-1-carboxylate) when a single dose given as a 9 hour continuous IV infusion is administered to healthy adults, healthy elderly subjects and patients with narcolepsy type 1 (NT1); (ii) the pharmacokinetics of Compound A when a single dose given as a 9 hour continuous IV infusion is administered to healthy adults, healthy elderly subjects and patients with narcolepsy type 1; and (iii) the pharmacodynamics (PD) effects of Compound A, primarily by evaluation of the sleep latency on MWT when a single dose given as a 9 hour continuous IV infusion is administered to patients with narcolepsy type 1.
Pharmacokinetics: Concentrations of Compound A in plasma, and CSF, and pharmacokinetics parameters.
On average, the time to reach the plateau appeared to be approximately 3 to 4 hours after the start of infusion. […] After switching off the IV infusion, Compound A plasma concentrations declined rapidly and in a biphasic manner with a mean terminal disposition phase t1/2z ranging approximately from 3.4 to 5.1 hours across all doses. […] Table 5 provides a summary of plasma concentrations of Compound A after a single IV infusion in healthy subjects. Table 6 provides a summary of pharmacokinetic parameters of Compound A after a single IV infusion in healthy subjects.

[1] = 7 mg single IV infusion, healthy subjects
[2] = 7 mg, 0.17 hr After End of Infusion
[3] = 14 mg single IV infusion, healthy subjects
[4] = 28 mg single IV infusion, healthy subjects
[5] = 28 mg, 0.17 hr After End of Infusion
[6] = 28 mg, 0.33 hr After End of Infusion
[7] = 28 mg, 0.5 hr After End of Infusion
[8] = 28 mg, 0.75 hr After End of Infusion
[9] = 28 mg, 1 hr After End of Infusion
[10] = 28 mg, 1.5 hr After End of Infusion
[11] = 28 mg, 2 hr After End of Infusion
[12] = 56 mg single IV infusion, healthy subjects
[13] = 56 mg, 0.17 hr After End of Infusion
[14] = 56 mg, 0.33 hr After End of Infusion
[15] = 56 mg, 0.5 hr After End of Infusion
[16] = 56 mg, 0.75 hr After End of Infusion
[17] = 56 mg, 1 hr After End of Infusion
[18] = 56 mg, 1.5 hr After End of Infusion

## COC(=O)N1CCC[C@H](NS(C)(=O)=O)[C@@H]1CO[C@H]1CC[C@@H](c2ccccc2)CC1 [Compound A, methyl (2R,3S)-3-((methylsulfonyl)amino)-2-(((cis-4-phenylcyclohexyl)oxy)methyl)piperidine-1-carboxylate]
[1]
  AUCinf D Mean: 20.48 ng·h/mL/mg
  AUCinf D Median: 20.80 ng·h/mL/mg
  CL Median: 48.10 L/h
  Cmax D Mean: 2.416 ng/mL/mg
  Cmax D Median: 2.360 ng/mL/mg
  Vss Median: 100.0 L
  t½z Mean: 4.120 h
  t½z Median: 3.220 h
[2]
  Plasma concentration, Mean: 9.360 ng/mL
  Plasma concentration, Minimum: 7.91 ng/mL
  Plasma concentration, Q1: 9.090 ng/mL
7 mg, Predose
  Plasma concentration, Mean: 0.000 ng/mL
  Plasma concentration, Minimum: 0.00 ng/mL
  Plasma concentration, Q1: 0.000 ng/mL
[3]
  AUCinf D Mean: 23.70 ng·h/mL/mg
  AUCinf D Median: 23.05 ng·h/mL/mg
  Cmax D Mean: 2.647 ng/mL/mg
  Cmax D Median: 2.640 ng/mL/mg
  t½z Mean: 4.498 h
  t½z Median: 4.170 h
[4]
  AUCinf D Mean: 18.90 ng·h/mL/mg
  AUCinf D Median: 19.60 ng·h/mL/mg
  Cmax D Mean: 2.076 ng/mL/mg
  Cmax D Median: 2.120 ng/mL/mg
  t½z Mean: 5.142 h
  t½z Median: 5.060 h
[5]
  Plasma concentration, Maximum: 34.9 ng/mL
  Plasma concentration, Mean: 32.52 ng/mL
  Plasma concentration, Median: 32.80 ng/mL
  Plasma concentration, Minimum: 28.2 ng/mL
  Plasma concentration, Q1: 32.70 ng/mL
  Plasma concentration, Q3: 34.00 ng/mL
[6]
  Plasma concentration, Maximum: 32.2 ng/mL
  Plasma concentration, Mean: 28.04 ng/mL
  Plasma concentration, Median: 27.20 ng/mL
  Plasma concentration, Minimum: 25.4 ng/mL
  Plasma concentration, Q1: 26.70 ng/mL
  Plasma concentration, Q3: 28.70 ng/mL
[7]
  Plasma concentration, Maximum: 33.7 ng/mL
  Plasma concentration, Mean: 25.36 ng/mL
  Plasma concentration, Median: 24.20 ng/mL
  Plasma concentration, Minimum: 20.9 ng/mL
  Plasma concentration, Q1: 21.30 ng/mL
  Plasma concentration, Q3: 26.70 ng/mL
[8]
  Plasma concentration, Maximum: 23.9 ng/mL
  Plasma concentration, Mean: 20.82 ng/mL
  Plasma concentration, Median: 19.50 ng/mL
  Plasma concentration, Minimum: 19.0 ng/mL
  Plasma concentration, Q1: 19.10 ng/mL
  Plasma concentration, Q3: 22.60 ng/mL
[9]
  Plasma concentration, Maximum: 21.4 ng/mL
  Plasma concentration, Mean: 18.56 ng/mL
  Plasma concentration, Median: 18.00 ng/mL
  Plasma concentration, Minimum: 15.6 ng/mL
  Plasma concentration, Q1: 17.80 ng/mL
  Plasma concentration, Q3: 20.00 ng/mL
[10]
  Plasma concentration, Maximum: 18.9 ng/mL
  Plasma concentration, Mean: 16.70 ng/mL
  Plasma concentration, Median: 18.00 ng/mL
  Plasma concentration, Minimum: 13.6 ng/mL
  Plasma concentration, Q1: 14.90 ng/mL
  Plasma concentration, Q3: 18.10 ng/mL
[11]
  Plasma concentration, Maximum: 13.4 ng/mL
  Plasma concentration, Mean: 10.53 ng/mL
  Plasma concentration, Median: 9.600 ng/mL
  Plasma concentration, Minimum: 8.06 ng/mL
  Plasma concentration, Q1: 8.990 ng/mL
  Plasma concentration, Q3: 12.60 ng/mL
[12]
  AUCinf D Mean: 19.27 ng·h/mL/mg
  AUCinf D Median: 18.75 ng·h/mL/mg
  Cmax D Mean: 2.200 ng/mL/mg
  Cmax D Median: 2.170 ng/mL/mg
  t½z Mean: 3.860 h
  t½z Median: 3.760 h
[13]
  Plasma concentration, Maximum: 79.9 ng/mL
  Plasma concentration, Mean: 63.58 ng/mL
  Plasma concentration, Median: 62.50 ng/mL
  Plasma concentration, Minimum: 54.5 ng/mL
  Plasma concentration, Q1: 55.60 ng/mL
  Plasma concentration, Q3: 66.50 ng/mL
[14]
  Plasma concentration, Mean: 54.37 ng/mL
  Plasma concentration, Median: 53.25 ng/mL
  Plasma concentration, Minimum: 44.7 ng/mL
  Plasma concentration, Q1: 45.00 ng/mL
[15]
  Plasma concentration, Mean: 50.33 ng/mL
  Plasma concentration, Median: 50.10 ng/mL
  Plasma concentration, Minimum: 38.4 ng/mL
  Plasma concentration, Q1: 40.90 ng/mL
[16]
  Plasma concentration, Mean: 45.77 ng/mL
  Plasma concentration, Median: 47.20 ng/mL
  Plasma concentration, Minimum: 33.3 ng/mL
  Plasma concentration, Q1: 36.90 ng/mL
[17]
  Plasma concentration, Mean: 41.83 ng/mL
  Plasma concentration, Median: 39.80 ng/mL
  Plasma concentration, Minimum: 30.1 ng/mL
  Plasma concentration, Q1: 34.80 ng/mL
[18]
  Plasma concentration, Mean: 33.63 ng/mL
  Plasma concentration, Median: 31.35 ng/mL
  Plasma concentration, Minimum: 27.4 ng/mL
  Plasma concentration, Q1: 28.40 ng/mL
